In one experiment the target is T1, AR-Receptor (Homo sapiens, UniProt P10275).
T1 sequence (P10275 1-920 Q868H): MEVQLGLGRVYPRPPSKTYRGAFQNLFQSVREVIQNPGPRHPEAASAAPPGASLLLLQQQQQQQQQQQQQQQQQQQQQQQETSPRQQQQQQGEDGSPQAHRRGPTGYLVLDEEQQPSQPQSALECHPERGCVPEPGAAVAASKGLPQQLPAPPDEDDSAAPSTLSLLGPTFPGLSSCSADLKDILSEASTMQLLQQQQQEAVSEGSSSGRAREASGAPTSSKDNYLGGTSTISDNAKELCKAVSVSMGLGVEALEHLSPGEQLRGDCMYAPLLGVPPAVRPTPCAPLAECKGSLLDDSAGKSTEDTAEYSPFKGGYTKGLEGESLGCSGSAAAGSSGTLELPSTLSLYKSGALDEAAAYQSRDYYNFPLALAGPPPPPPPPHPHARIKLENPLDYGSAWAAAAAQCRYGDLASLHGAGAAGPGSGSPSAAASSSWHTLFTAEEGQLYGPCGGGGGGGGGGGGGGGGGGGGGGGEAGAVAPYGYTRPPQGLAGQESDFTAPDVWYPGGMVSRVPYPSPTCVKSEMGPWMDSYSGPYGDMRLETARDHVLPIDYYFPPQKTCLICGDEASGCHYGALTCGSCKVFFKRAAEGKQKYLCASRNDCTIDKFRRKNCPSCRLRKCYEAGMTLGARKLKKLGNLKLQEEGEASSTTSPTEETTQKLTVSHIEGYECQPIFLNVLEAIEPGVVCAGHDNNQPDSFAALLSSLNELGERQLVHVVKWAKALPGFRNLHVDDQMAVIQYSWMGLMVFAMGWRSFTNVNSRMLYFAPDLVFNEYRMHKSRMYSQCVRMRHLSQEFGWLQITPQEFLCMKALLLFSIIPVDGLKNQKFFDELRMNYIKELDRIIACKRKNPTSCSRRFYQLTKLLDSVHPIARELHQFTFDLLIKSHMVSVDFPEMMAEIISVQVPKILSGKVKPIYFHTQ
As to the kind of experiment: Functional Assay AR-Receptor (MDA-MB-453 cells, luciferase). The format is cell-based. To be noted: antagonist effect in the presence of DHT 1 nM, 24 h, luciferase luminescence, read-out: AR antag KB. The method, then:
Functional Assay AR-Receptor
MDA-MB-453 cells were cultured in DMEM (ATCC, ref 30-2002), 10% FBS, 1% penicillin, 1% streptomycin, 75 μg/ml gentamycin.
The day before performing assay, the cells were trypsinized and seeded in a 384-well plate (Greiner, ref 781098) (8000 cells/well) in 50 μl of complete culture medium. Cells were stores at 37° C. in a 5% CO2 atmosphere overnight.
The medium was replaced by 50 μl complete growth medium with 0.1% FBS. Compounds were dispensed with Echo 550 (Labcyte) and incubated for 24 h at 37° C. in a 5% CO2 atmosphere. Antagonist effect was measured in the presence of DHT 1 nM.
After incubation, assay medium removed and 20 μl of 1× Promega lysis buffer were added to each well. The plate was incubated 15 minutes at RT and quick-frozen to −80° C. and the thaw to room temperature. 50 μl of luciferase substrate (E4550, Promega) were added to each well and luminescence (integration time 1000 msec) was read in an EnSpire multilabel reader (Perkin Elmer).

For experiment [1], the target named is T2, Human Glucocorticoid Receptor (Homo sapiens, UniProt P04150).
T2 construct: endogenous in cells; host or cells: cytosol from IM-9 cell line
T2 sequence (P04150 1-777): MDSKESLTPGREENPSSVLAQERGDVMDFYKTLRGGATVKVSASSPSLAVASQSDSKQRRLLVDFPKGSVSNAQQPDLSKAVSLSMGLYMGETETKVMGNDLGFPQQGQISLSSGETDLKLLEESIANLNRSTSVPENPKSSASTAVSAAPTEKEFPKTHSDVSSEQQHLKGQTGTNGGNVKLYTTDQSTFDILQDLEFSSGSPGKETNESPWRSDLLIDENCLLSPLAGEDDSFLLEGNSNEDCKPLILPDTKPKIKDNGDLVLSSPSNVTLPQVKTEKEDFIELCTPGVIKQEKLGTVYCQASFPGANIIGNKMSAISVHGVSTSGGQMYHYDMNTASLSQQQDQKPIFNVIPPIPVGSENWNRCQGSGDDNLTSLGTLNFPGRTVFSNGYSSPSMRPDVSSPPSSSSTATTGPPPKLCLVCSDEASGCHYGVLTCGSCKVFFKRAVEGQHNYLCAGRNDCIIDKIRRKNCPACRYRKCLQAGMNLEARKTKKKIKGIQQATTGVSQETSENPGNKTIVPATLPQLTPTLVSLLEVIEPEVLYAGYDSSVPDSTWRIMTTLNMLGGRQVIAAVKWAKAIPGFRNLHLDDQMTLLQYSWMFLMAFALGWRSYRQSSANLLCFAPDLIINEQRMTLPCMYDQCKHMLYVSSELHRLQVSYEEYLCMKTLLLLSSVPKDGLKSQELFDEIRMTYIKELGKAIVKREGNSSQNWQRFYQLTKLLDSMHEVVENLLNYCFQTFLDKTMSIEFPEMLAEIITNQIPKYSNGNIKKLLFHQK
As to the kind of experiment: Competition Binding in IM-9 Human Glucocorticoid Receptor (GR IM-9). As to conditions: cytosol from IM-9 cell line, 1.5 nM [3H]-Dexamethasone, 4° C. for 6 hours. The procedure, abridged: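 Radioligand competition using 100 μg IM-9 cell cytosol and 1.5 nM [3H]-dexamethasone, incubated 6 h at 4° C in TES/molybdate buffer, pH 7.4. Filtration on PEI-treated GF/B filters, scintillation counting; nonspecific binding defined with 10 μM triamcinolone.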

The values below come from US11453660B2, “Androgen receptor and glucocorticoid receptor modulators” (ONCOSTELLAE, S.L., priority 2017, dated 2022).

One may read the Kb as the equilibrium dissociation constant of an antagonist, usually derived from a functional assay. The term IC50 denotes the concentration at which inhibition is half-maximal. Low readings indicate greater potency, high ones weaker potency. As to `CC(=O)C1=C(C)NC(C2CC2)=C(C(=O)OCC2CC2)C1c1csc2cc(C#N)ccc12` (centres unmarked) [Example C122, Cyclopropylmethyl 5-acetyl-4-(6-cyanobenzo[b]thiophen-3-yl)-2-cyclopropyl-6-methyl-1,4-dihydropyridine-3-carboxylate], the Kb at AR-Receptor is below 100 nM. In experiment [1], this compound gave an IC50 of 100 to 1000 nM. As for `CC(=O)C1=C(C)NC(C2CC2)=C(C(=O)OCc2ccc(C#N)cc2)C1c1csc2ncccc12` (centres unmarked) [Example J43, 4-cyanobenzyl 5-acetyl-2-cyclopropyl-6-methyl-4-(thieno[2,3-b]pyridin-3-yl)-1,4-dihydropyridine-3-carboxylate], the Kb at AR-Receptor was in the range of 100 to 1000 nM. In addition, the IC50 in experiment [1] was below 100 nM.

On to `CC(=O)C1=C(C)NC(C)=C(C(=O)OCc2ccncc2)C1c1csc2ncccc12` (centres unmarked) [Example C64, Pyridin-4-ylmethyl 5-acetyl-2,6-dimethyl-4-(thieno[2,3-b]pyridin-3-yl)-1,4dihydropyridine-3-carboxylate], for which the Kb on AR-Receptor lay within 100 to 1000 nM. For the same compound, the IC50 in experiment [1] is at least 1000 nM.

In the case of `CC(=O)C1=C(C)NC(C)=C(C(=O)N(C)Cc2ccccc2)C1c1csc2ncccc12` (centres unmarked) [Example C80, 5-Acetyl-N-benzyl-N,2,6-trimethyl-4-(thieno[2,3-b]pyridin-3-yl)-1,4-dihydropyridine-3-carboxamide], the Kb on AR-Receptor is at least 1000 nM. The same compound yielded an IC50 in experiment [1] of at least 1000 nM. Consider `CC(=O)C1=C(C)NC(N)=C(C(=O)OC2CCCC2)C1c1csc2c(Br)cccc12` (centres unmarked) [Example D6, Cyclopentyl 5-acetyl-2-amino-4-(7-bromobenzo[b]thiophen-3-yl)-6-methyl-1,4-dihydropyridine-3-carboxylate], for which the Kb at AR-Receptor was at least 1000 nM. In experiment [1], this compound returned an IC50 of 100 to 1000 nM.

`CC(=O)C1=C(C)NC(C)=C(C(=O)OCc2cccnc2)C1c1csc2ncccc12` (centres unmarked) [Example C61, Pyridin-3-ylmethyl 5-acetyl-2,6-dimethyl-4-(thieno[2,3-b]pyridin-3-yl)-1,4-dihydropyridine-3-carboxylate]: the Kb on AR-Receptor lay within 100 to 1000 nM. The IC50 in experiment [1] is at least 1000 nM. With `COC(=O)C1=C(C)NC(N)=C(C(=O)OC)C1c1csc2c(C#N)cccc12` (centres unmarked) [Example D7, Dimethyl 2-amino-4-(7-cyanobenzo[b]thiophen-3-yl)-6-methyl-1,4-dihydropyridine-3,5-dicarboxylate], the Kb on AR-Receptor is at least 1000 nM. Further, the IC50 in experiment [1] is below 100 nM. The matching figures for `CC(=O)C1=C(C)NC(C)=C(C(=O)OCc2cccc(CN3CCN(C)CC3)c2)C1c1csc2c(Br)cccc12` (centres unmarked) [Example C108, 3-((4-methylpiperazin-1-yl)methyl)benzyl 5-acetyl-4-(7-bromobenzo[b]thiophen-3-yl)-2,6-dimethyl-1,4-dihydropyridine-3-carboxylate]: at least 1000 nM and below 100 nM. As for `CC(=O)C1=C(C)NC(C)=C(C(=O)OC2CCC(F)(F)CC2)C1c1csc2ncccc12` (centres unmarked) [Example C79, 4,4-difluorocyclohexyl 5-acetyl-2,6-dimethyl-4-(thieno[2,3-b]pyridin-3-yl)-1,4-dihydropyridine-3-carboxylate], the Kb at AR-Receptor is at least 1000 nM. This compound displayed an IC50 in experiment [1] below 100 nM.

For the compound `CC(=O)C1=C(C)NC(C)=C(C(=O)OCc2ccncc2)C1c1csc2ccc(Cl)cc12` (centres unmarked) [Example C62, Pyridin-4-ylmethyl 5-acetyl-4-(5-chlorobenzo[b]thiophen-3-yl)-2,6-dimethyl-1,4-dihydropyridine-3-carboxylate], the Kb on AR-Receptor lay in the range of 100 to 1000 nM. Take `CC(=O)C1=C(C)NC(C)=C(C(=O)OCc2cccc(N3CCOCC3)c2)C1c1csc2ncccc12` (centres unmarked) [Example C75, 3-morpholinobenzyl 5-acetyl-2,6-dimethyl-4-(thieno[2,3-b]pyridin-3-yl)-1,4-dihydropyridine-3-carboxylate]: on AR-Receptor, the Kb is at least 1000 nM. Moreover, the IC50 in experiment [1] was in the range of 100 to 1000 nM. `CC(=O)C1=C(C)NC(C)=C(C(=O)OCc2ccccc2-c2ccncc2)C1c1csc2ncccc12` (centres unmarked) [Example L5, 2-(pyridin-4-yl)benzyl 5-acetyl-2,6-dimethyl-4-(thieno[2,3-b]pyridin-3-yl)-1,4-dihydropyridine-3-carboxylate]: on AR-Receptor, the Kb is at least 1000 nM. The compound further gave an IC50 in experiment [1] below 100 nM. For the compound `CC(=O)C1=C(C)NC(C)=C(C(=O)OCc2cncc(-c3ccncc3)c2)C1c1csc2ncccc12` (centres unmarked) [Example L7, [3,4′-bipyridin]-5-ylmethyl 5-acetyl-2,6-dimethyl-4-(thieno[2,3-b]pyridin-3-yl)-1,4-dihydropyridine-3-carboxylate], the antagonist equilibrium constant (Kb) at AR-Receptor was at least 1000 nM. Besides, in experiment [1], the IC50 fell in the range of 100 to 1000 nM.

On to `CC(=O)C1=C(C)NC(C)=C(C(=O)OCc2ccc(Cl)nc2)C1c1csc2ncccc12` (centres unmarked) [Example C74, (6-chloropyridin-3-yl)methyl 5-acetyl-2,6-dimethyl-4-(thieno[2,3-b]pyridin-3-yl)-1,4-dihydropyridine-3-carboxylate], for which, on AR-Receptor, the Kb is at least 1000 nM. Also, the IC50 in experiment [1] was in the range of 100 to 1000 nM.

For the compound `COC(=O)C1=C(C2CC2)NC(C2CC2)=C(C#N)C1c1csc2c(C#N)cccc12` (centres unmarked) [Example C107, Methyl 5-cyano-4-(7-cyanobenzo[b]thiophen-3-yl)-2,6-dicyclopropyl-1,4-dihydropyridine-3-carboxylate], the Kb on AR-Receptor is at least 1000 nM. For the same compound, in experiment [1], the IC50 was below 100 nM.
